According to patent publication US7399775B2, “β-amyloid protein production/secretion inhibitor” (Daiichi Pharmaceutical Co., Ltd., priority 2001, dated 2008):

| SMILES | melting point [°C] |
| --- | --- |
| Cl.O=C(OCCC(c1cc(F)ccc1F)S(=O)(=O)c1ccc(Cl)cc1)N1CCN(Cc2ccccc2)CC1 (centres unmarked) | 184 to 189 |
| O=C(c1cccnc1)N1CCC(c2cc(F)ccc2F)(S(=O)(=O)c2ccc(Cl)cc2)CC1 [Example 265, [4-[(4-Chlorophenyl)sulfonyl]-4-(2,5-difluorophenyl)piperidino](3-pyridyl)methanone] | 119 to 124 |
| Cl.O=S(=O)(c1ccc(Cl)cc1)C(CCNCCO)c1cc(F)ccc1F (centres unmarked) | 216 to 220 |
| O=S(=O)(c1ccc(Cl)cc1)C(C/C=C\CO)c1cc(F)ccc1F (centres unmarked) [Example 247, (Z)-5-[(4-Chlorophenyl)sulfonyl]-5-(2,5-difluorophenyl)-2-penten-1-ol] | 60 to 63 |
| O=S(=O)(c1ccc(Cl)cc1)C(CCCCCCO)c1cc(F)ccc1F (centres unmarked) [Example 274, 7-[(4-Chlorophenyl)sulfonyl]-7-(2,5-difluorophenyl)-1-heptanol] | 77 to 79 |
| COC(=O)N1CCC(c2cc(F)ccc2F)(S(=O)(=O)c2ccc(Cl)cc2)CC1 [Example 267, Methyl 4-[(4-chlorophenyl)sulfonyl]-4-(2,5-difluorophenyl)-1-piperidinecarboxylate] | 123 to 126 |
| CS(=O)(=O)CCCCC(c1cccc(F)c1F)S(=O)(=O)c1ccc(Cl)cc1 (centres unmarked) [Example 77, 1-[1-(4-Chlorophenylsulfonyl)-5-(methylsulfonyl)pentyl]-2,3-difluorobenzene] | 141 to 143 |
| O=S(=O)(c1ccc(Cl)cc1)C1(c2cccnc2Cl)CCCCC1 [Example 109, 2-Chloro-3-[1-(4-chlorophenylsulfonyl)cyclohexyl]pyridine] | 129 to 131 |
| O=S(=O)(c1ccc(Cl)cc1)C(CCN1CCOCC1)c1cc(F)ccc1F (centres unmarked) [Example 298, 4-[3-[(4-Chlorophenyl)sulfonyl]-3-(2,5-difluorophenyl)propyl]morpholine] | 149 to 151 |
| Cl.O=C(NCCCC(c1cc(F)ccc1F)S(=O)(=O)c1ccc(Cl)cc1)c1cccnc1 (centres unmarked) | 154 to 157 |
| Cl.O=S(=O)(c1ccc(Cl)cc1)C(CCCCN1CCCC1)c1cc(F)ccc1F (centres unmarked) | 167 to 170.5 |
| CS(=O)(=O)CCCCC(c1ccccn1)S(=O)(=O)c1ccc(Cl)cc1 (centres unmarked) [Example 70, 2-[1-[(4-Chlorophenyl)sulfonyl]-5-(methylsulfonyl)pentyl]pyridine] | 140 to 141 |
| CCOC(=O)NCCC(c1cc(F)ccc1F)S(=O)(=O)c1ccc(Cl)cc1 (centres unmarked) [Example 222, Ethyl N-[3-[(4-chlorophenyl)sulfonyl]-3-(2,5-difluorophenyl)propyl]carbamate] | 121 to 122 |
| O=S(=O)(c1ccc(Cl)cc1)C(CCSCCO)c1cc(F)ccc1F (centres unmarked) [Example 250, 2-[3-[(4-Chlorophenyl)sulfonyl]-3-(2,5-difluorophenyl)propylthio]ethanol] | 108 to 110 |
| CCCCCCCC(c1cc(F)ccc1F)S(=O)(=O)c1ccc(Cl)cc1 (centres unmarked) [Example 324, 2-[1-(4-chlorophenylsulfonyl)octyl]-1,4-difluorobenzene] | 47 to 48 |
| O=C(CCCC(c1cc(F)ccc1F)S(=O)(=O)c1ccc(Cl)cc1)N1CCCC1 (centres unmarked) [Example 203, 5-[(4-Chlorophenyl)sulfonyl]-5-(2,5-difluorophenyl)-1-(1-pyrrolildinyl)-1-pentanone] | 125 to 126 |
| Cc1ncsc1CCC(c1cc(F)ccc1F)S(=O)(=O)c1ccc(Cl)cc1 (centres unmarked) [Example 319, 5-[3-(4-Chlorophenylsulfonyl)-3-(2,5-difluorophenyl)propyl]-4-methyl-1,3-thiazole] | 183 to 184 |
| CS(=O)(=O)CCCCC(c1ccc(F)cc1Cl)S(=O)(=O)c1ccc(Cl)cc1 (centres unmarked) [Example 68, 2-Chloro-1-[1-[(4-chlorophenyl)sulfonyl]-5-(methylsulfonyl)pentyl]-4-fluorobenzene] | 124 to 125 |
| CS(=O)(=O)CCCCC(c1nccs1)S(=O)(=O)c1ccc(Cl)cc1 (centres unmarked) [Example 116, 2-[1-[(4-Chlorophenyl)sulfonyl]-5-(methylsulfonyl)pentyl]thiazole] | 118 to 119 |
| O=C(CCCCC(c1cc(F)ccc1F)S(=O)(=O)c1ccc(Cl)cc1)N1CCCC1 (centres unmarked) [Example 204] | 135 to 136 |
| O=C(CC(c1cc(F)ccc1F)S(=O)(=O)c1ccc(Cl)cc1)N1CCCC1 (centres unmarked) [Example 198, 3-[(4-Chlorophenyl)sulfonyl]-3-(2,5-difluorophenyl)-1-(1-pyrrolildinyl)-1-propanone] | 122 to 125 |
| O=S(=O)(c1ccc(Cl)cc1)C(CCCC1CCCCC1)c1cc(F)ccc1F (centres unmarked) [Example 317, 2-[1-(4-Chlorophenylsulfonyl)-4-cyclohexylbutyl]-1,4-difluorobenzene] | 47 to 49 |

| SMILES | melting point [°C] |
| --- | --- |
| O=C1OCCN1CCCC(c1cc(F)ccc1F)S(=O)(=O)c1ccc(Cl)cc1 (centres unmarked) [Example 225, 3-[4-[(4-Chlorophenyl)sulfonyl]-4-(2,5-difluorophenyl)butyl]-2-oxazolidinone] | 156 to 159 |
| CSC(c1cc(F)ccc1F)S(=O)(=O)c1ccc(Cl)cc1 (centres unmarked) [Example 56, 2-[1-[(4-Chlorophenyl)sulfonyl]-1-methylthio]methyl-1,4-difluorobenzene] | 128 to 129 |
| O=C(OCCC(c1cc(F)ccc1F)S(=O)(=O)c1ccc(Cl)cc1)N1CCOCC1 (centres unmarked) [Example 211, 3-[(4-Chlorophenyl)sulfonyl]-3-(2,5-difluorophenyl)propyl=4-morpholinecarboxylate] | 140 to 141 |
| COC(=O)/C=C/c1ccc(C(c2cc(F)ccc2F)S(=O)(=O)c2ccc(Cl)cc2)nc1 (centres unmarked) [Example 332, Methyl 3-[6-[(4-chlorophenylsulfonyl)-(2,5-difluorophenyl)methyl]pyridin-3-yl]acrylate] | 145 to 146 |
| O=S(=O)(c1ccc(Cl)cc1)C(CCCCF)c1cc(F)ccc1F (centres unmarked) [Example 231, 2-[1-(4-Chlorophenylsulfonyl)-5-fluoropentyl]-1,4-difluorobenzene] | 77 to 78 |
| O=C(c1ccncc1)N1CCC(c2cc(F)ccc2F)(S(=O)(=O)c2ccc(Cl)cc2)CC1 [Example 264, [4-[(4-Chlorophenyl)sulfonyl]-4-(2,5-difluorophenyl)piperidino](4-pyridyl)methanone] | 245 to 248 |
| CC(CCO)C(c1cc(F)ccc1F)S(=O)(=O)c1ccc(Cl)cc1 (single isomer, unassigned) [Example 239, 4-(4-Chlorophenylsulfonyl)-4-(2,5-difluorophenyl)-3-methyl-1-butanol] | 65 to 67 |
| CN(C)CC(=O)NCc1ccc(C(c2cc(F)ccc2F)S(=O)(=O)c2ccc(Cl)cc2)nc1 (centres unmarked) [Example 359, N-[[6-[(4-Chlorophenylsulfonyl)(2,5-difluorophenyl)methyl]pyridin-3-yl]methyl]-2-dimethylaminoacetamide] | 177 to 179 |
| CC(C)(c1cc(F)ccc1F)S(=O)(=O)c1ccc(Cl)cc1 [Example 232, 2-[1-[(4-Chlorophenyl)sulfonyl]-1-methylethyl]-1,4-difluorobenzene] | 147 to 148 |
| O=S(=O)(c1ccc(Cl)cc1)C(c1ccc(CN2CCCCC2)cn1)c1cc(F)ccc1F (centres unmarked) [Example 336, 2-[(4-Chlorophenylsulfonyl)-(2,5-difluorophenyl)methyl]-5-(piperidin-1-ylmethyl)pyridine] | 113 to 114 |
| CC(CCCO)C(c1cc(F)ccc1F)S(=O)(=O)c1ccc(Cl)cc1 (centres unmarked) [Example 40, 5-[(4-Chlorophenyl)sulfonyl]-5-(2,5-difluorophenyl)-4-methyl-1-pentanol] | 67 to 69 |
| CCCCC(c1ccncc1)S(=O)(=O)c1ccc(Cl)cc1 (centres unmarked) [Example 120, 4-[1-(4-Chlorophenylsulfonyl)pentyl]pyridine] | 109 to 111 |
| O=S(=O)(c1ccc(Cl)cc1)C(CCc1ccccn1)c1cc(F)ccc1F (centres unmarked) [Example 318, 2-[3-(4-chlorophenylsulfonyl)-3-(2,5-difluorophenyl)propyl]pyridine] | 129 to 131 |
| C[S+]([O-])CCCCC(c1ccccc1)S(=O)(=O)c1ccc(Cl)cc1 (centres unmarked) [Example 52, 1-Chloro-4-(5-methylsulfinyl-1-phenylpentyl)sulfonylbenzene] | 98.5 to 99.5 |
| O=S(=O)(c1ccc(Cl)cc1)C(CCC1CCCCC1)c1cc(F)ccc1F (centres unmarked) [Example 316, 2-[1-(4-Chlorophenylsulfonyl)-3-cyclohexylpropyl]-1,4-difluorobenzene] | 82 to 83 |
| CC(=O)N1CCC(c2cc(F)ccc2F)(S(=O)(=O)c2ccc(Cl)cc2)CC1 [Example 263, 1-[4-[(4-Chlorophenyl)sulfonyl]-4-(2,5-difluorophenyl)piperidino]-1-ethanone] | 159 to 160 |
| O=S(=O)(c1ccc(Cl)cc1)C1(c2cc(F)ccc2F)CC[S+]([O-])CC1 (centres unmarked) [Example 252, 4-[(4-Chlorophenyl)sulfonyl]-4-(2,5-difluorophenyl)tetrahydrothiopyran-1-on] | 173 to 182 |
| O=S(=O)(c1ccc(Cl)cc1)C1(c2cc(F)ccc2F)CCSCC1 [Example 251, 4-[(4-Chlorophenyl)sulfonyl]-4-(2,5-difluorophenyl)tetrahydrothiopyran] | 188 to 190 |
| COc1ccc(CCC(c2cc(F)ccc2F)S(=O)(=O)c2ccc(Cl)cc2)cc1 (centres unmarked) [Example 308, 2-[1-(4-Chlorophenylsulfonyl)-3-(4-methoxyphenyl)propyl]-1,4-difluorobenzene] | 118 to 120 |
| CCC(C)CCC(c1cc(F)ccc1F)S(=O)(=O)c1ccc(Cl)cc1 (centres unmarked) [Example 326, 2-[1-(4-Chlorophenylsulfonyl)-4-methylhexyl]-1,4-difluorobenzene] | 56 to 58 |
| O=S(=O)(c1ccc(Cl)cc1)C(c1cc[n+]([O-])cc1)c1cc(F)ccc1F (centres unmarked) [Example 340, 4-[(4-Chlorophenylsulfonyl)-(2,5-difluorophenyl)methyl]pyridin-N-oxide] | 211 to 212 |
| Fc1ccc(F)c(C(Sc2ccc(Cl)cc2)c2ccc(C3OCCO3)cn2)c1 (centres unmarked) [Example 329, 2-[(4-Chlorophenylthio)-(2,5-difluorophenyl)methyl]-5-(1,3-dioxolan-2-yl)pyridine] | 70 to 73 |
